Measured values from patent publication US20080207692A1, “Stabilized and preserved ketoifen ophthalmic compositions” (priority 2005, published 2008).

How the values were obtained:
Format in all cases: physicochemical
[1] = Hot stability: formulations heated at 100° C. for 24 hours
[2] = Stability of ketotifen-perborate formulations filled in polypropylene bottles and stored at 55° C.; conditions: stored at 55° C., Table 2 formulations
Method: The stability of the formulations shown in Table 1 are evaluated by filling the formulations in bottles and storing the formulations at 55° C. for various times.

[3] = Compatibility of ketotifen with low concentrations of hydrogen peroxide

CN1CCC(=C2c3ccccc3CC(=O)c3sccc32)CC1 [ketotifen]
Stability of ketotifen (in words) [1]: stable | Stability of ketotifen (in words) [2]: stable | Compatibility with low concentrations of hydrogen peroxide ([3]; formulated at a pH lower than neutral pH): compatible | Compatibility with low concentrations of hydrogen peroxide ([3]; formulated at neutral pH, i.e., a pH of about 7): not compatible
